# In US20170143716A1, “METHOD OF TREATING PROLIFERATIVE DISORDERS AND OTHER PATHOLOGICAL CONDITIONS MEDIATED BY BCR-ABL, C-KIT, DDR1, DDR2 OR PDGF-R KINASE ACTIVITY” (Novartis AG, priority 2009, published 2017):
# Legend:
# [1] = human, in vivo, po, 400 mg
# Description: The effect of food on the pharmacokinetic parameters of 400 mg oral dose of nilotinib in the formulation mentioned above was studied in human subjects. […] In view of these findings, it is recommended that nilotinib shall not be taken with a meal in order to minimize the effect of food on nilotinib bioavailability. A statement in this regard is, for instance, included in sections 4.2, 4.4 and 4.5 of the SPC (Summary of Product Characteristics) of the marketing authorization for Tasigna™ issued by the European Medicines Agency (EMEA).
# [2] = Study in CML patients obtaining 400 mg nilotinib twice daily (trough concentrations C0, C12); format: in vivo, human; conditions: 21 CML patients, 400 mg twice daily
# Description: 21 Patients were treated with 400 mg nilotinib twice daily. Blood samples were collected prior to morning dose (C0) and prior to evening dose (C12). […] With other words, the trough concentration of nilotinib in the morning was 60 to 80% higher than that observed in the evening.
# [3] = PK study in healthy volunteers (4-way crossover, morning vs evening dosing); format: in vivo, human
# Description: The increased exposure with QHS was confirmed in a study investigating nilotinib pharmacokinetics in healthy volunteers (HV) comparing cohorts receiving 600 mg morning dose or 600 mg morning dose QHS, respectively. In a single center, 4-way crossover study (n=16-24), HV group A was administered 300 mg nilotinib (in the form of nilotinib monohydrochloride monohydrate) in the morning, 2 hours after breakfast; HV group B was administered 300 mg nilotinib (in the form of nilotinib monohydrochloride monohydrate) in the evening, 2 hours after diner; HV group C was administered 600 mg nilotinib (in the form of nilotinib monohydrochloride monohydrate) in the evening, 2 hours after diner; and HV group D was administered 600 mg nilotinib (in the form of nilotinib monohydrochloride monohydrate) in the evening, 4 hours after diner.
# The nilotinib PK was compared when administered in the evening versus administration in the morning (B vs. A) and the potential residual food effect on nilotinib absorption was assessed (D vs. C).
# [4] = 300 mg evening vs 300 mg morning
# [5] = 600 mg evening 4 hours after diner vs 2 hours after diner
# [6] = group A: 300 mg in the morning, 2 hours after breakfast, N = 20
# [7] = group B: 300 mg in the evening, 2 hours after diner, N = 18
# [8] = group C: 600 mg in the evening, 2 hours after diner, N = 22
# [9] = group D: 600 mg in the evening, 4 hours after diner, N = 22
compound,measurement,setting,value
"Cc1cn(-c2cc(NC(=O)c3ccc(C)c(Nc4nccc(-c5cccnc5)n4)c3)cc(C(F)(F)F)c2)cn1 [nilotinib, 4-methyl-3-[[4-(3-pyridinyl)-2-pyrimidinyl]amino]-N-[5-(4-methyl-1H-imidazol-1-yl)-3-(trifluoromethyl)phenyl] benzamide]",increase in total exposure (AUC0-t) with food,[1],29%
same,total exposure (AUC0-t) increase with food,[1],82%
same,ratio C0/C12 (concentration prior to morning dose / prior to evening dose),[2],1.7
same,"AUC0-12, Geometric Mean Ratio (90% Cls) B vs A",[3]; [4],1.21
same,"AUC0-24, Geometric Mean Ratio (90% Cls) B vs A",[3]; [4],1.21
same,"AUC0-inf, Geometric Mean Ratio (90% Cls) B vs A",[3]; [4],1.09
same,"AUC0-tlast, Geometric Mean Ratio (90% Cls) B vs A",[3]; [4],1.14
same,"Cmax, Geometric Mean Ratio (90% Cls) B vs A",[3]; [4],1.14
same,"tmax, Geometric Mean Ratio (90% Cls) B vs A",[3]; [4],0.49
same,"AUC0-12, Geometric Mean Ratio (90% Cls) D vs C",[3]; [5],0.93
same,"AUC0-24, Geometric Mean Ratio (90% Cls) D vs C",[3]; [5],0.93
same,"AUC0-inf, Geometric Mean Ratio (90% Cls) D vs C",[3]; [5],0.94
same,"AUC0-tlast, Geometric Mean Ratio (90% Cls) D vs C",[3]; [5],0.94
same,"Cmax, Geometric Mean Ratio (90% Cls) D vs C",[3]; [5],0.92
same,"tmax, Geometric Mean Ratio (90% Cls) D vs C",[3]; [5],−0.49
same,AUC0-12,[3]; [6],4577 ng·h/mL
same,AUC0-24,[3]; [6],7781 ng·h/mL
same,AUC0-inf,[3]; [6],14920 ng·h/mL
same,AUC0-tlast,[3]; [6],13650 ng·h/mL
same,Cmax,[3]; [6],577 ng/mL
same,t1/2,[3]; [6],20.3 h
same,tmax,[3]; [6],4.0 h
same,AUC0-12,[3]; [7],5537 ng·h/mL
same,AUC0-24,[3]; [7],9435 ng·h/mL
same,AUC0-inf,[3]; [7],16272 ng·h/mL
same,AUC0-tlast,[3]; [7],15556 ng·h/mL
same,Cmax,[3]; [7],655 ng/mL
same,t1/2,[3]; [7],14.5 h
same,tmax,[3]; [7],4.0 h
same,AUC0-12,[3]; [8],7124 ng·h/mL
same,AUC0-24,[3]; [8],11857 ng·h/mL
same,AUC0-inf,[3]; [8],23216 ng·h/mL
same,AUC0-tlast,[3]; [8],20819 ng·h/mL
same,Cmax,[3]; [8],854 ng/mL
same,t1/2,[3]; [8],20.5 h
same,tmax,[3]; [8],4.0 h
same,AUC0-12,[3]; [9],6650 ng·h/mL
same,AUC0-24,[3]; [9],111064 ng·h/mL
same,AUC0-inf,[3]; [9],21937 ng·h/mL
same,AUC0-tlast,[3]; [9],19591 ng·h/mL
same,Cmax,[3]; [9],782 ng/mL
same,t1/2,[3]; [9],19.9 h
same,tmax,[3]; [9],4.0 h
same,exposure higher following the evening dose than the morning dose,"[3]; healthy volunteers, evening vs morning dose",up to 20%
